According to patent US11414416B1, “Compounds and uses thereof” (Foghorn Therapeutics Inc., priority 2019, dated 2022):

What was measured:
[1] = biological target: BRD9 bromodomain (Homo sapiens (Human), UniProt Q9H8M2); experiment: BRD9 bromodomain TR-FRET competition binding assay; settings: Table 4; competition with biotinylated ligand, 3 nM Flag-BRD9, 90 minutes
Description: Procedure: His-Flag-BRD9 (P133-K239; Swiss Prot Q9H8M2; SEQ ID NO:1 mgsshhhhhhenlyfq/gdykddddkgslevlfqg/[…] […]) was cloned, expressed, purified, and then treated with TEV protease. Cleaved His tag was removed by purification. The binding of a biotinylated small molecule ligand of BRD9 was assessed via the LANCE® TR-FRET platform (PerkinElmer), and the compounds were assayed for inhibitory activity against this interaction.
A mixture of biotinylated-ligand and SureLight™ Allophycocyanin-Streptavidin (APC-SA, PerkinElmer AD0201) in 50 mM HEPES (pH 7.4), 50 mM NaCl, 1 mM TCEP (pH 7), 0.01% (v/v) Tween-20, 0.01% (w/v) bovine serum albumin was added to a white 384-well PerkinElmer Proxiplate Plus plate. DMSO or 3-fold serially diluted compounds were then added to the Proxiplate followed by addition of Flag-BRD9. After a 10-minute incubation at room temperature, Eu-W1024 anti-FLAG (PerkinElmer, AD0273) was added. The final reaction mixture that contained 3.75 nM biotinylated ligand, 3 nM Flag-BRD9, 7.5 nM SureLight™ Allophycocyanin-Streptavidin, and 0.2 nM Eu-W1024 anti-FLAG was incubated at room temperature for 90 minutes.
Results: The plates were then read on a PerkinElmer Envision plate reader to determine the ratio of emission at 665 nm over 615 nm. […]

[2] = biological target: Nanoluciferase-BRD9 fusion protein (Homo sapiens (Human), UniProt Q9H8M2); experiment: SYO1 BRD9 NanoLuc degradation assay; type: cell-based; settings: Table 5A, SYO-1 cells expressing 3×FLAG-NLuc-BRD9, 6 hours; for DC50: read-out: SYO1 BRD9-NanoLuc degradation IC50
Method in brief: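 Degradation was read as loss of nanoluciferase signal (Nano-Glo) after 6 h compound exposure in a stable SYO-1 line carrying 3×FLAG-NLuc-BRD9 (8000 cells/well). Normalised between DMSO (high) and a 1 μM known BRD9 degrader (low).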

BRD9 bromodomain, sequence (Q9H8M2 133-239): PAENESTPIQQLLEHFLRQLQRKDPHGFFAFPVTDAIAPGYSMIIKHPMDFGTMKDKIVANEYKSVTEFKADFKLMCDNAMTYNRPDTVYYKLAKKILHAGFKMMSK
Nanoluciferase-BRD9 fusion protein, sequence (Q9H8M2 whole entry, the tested form may be a part): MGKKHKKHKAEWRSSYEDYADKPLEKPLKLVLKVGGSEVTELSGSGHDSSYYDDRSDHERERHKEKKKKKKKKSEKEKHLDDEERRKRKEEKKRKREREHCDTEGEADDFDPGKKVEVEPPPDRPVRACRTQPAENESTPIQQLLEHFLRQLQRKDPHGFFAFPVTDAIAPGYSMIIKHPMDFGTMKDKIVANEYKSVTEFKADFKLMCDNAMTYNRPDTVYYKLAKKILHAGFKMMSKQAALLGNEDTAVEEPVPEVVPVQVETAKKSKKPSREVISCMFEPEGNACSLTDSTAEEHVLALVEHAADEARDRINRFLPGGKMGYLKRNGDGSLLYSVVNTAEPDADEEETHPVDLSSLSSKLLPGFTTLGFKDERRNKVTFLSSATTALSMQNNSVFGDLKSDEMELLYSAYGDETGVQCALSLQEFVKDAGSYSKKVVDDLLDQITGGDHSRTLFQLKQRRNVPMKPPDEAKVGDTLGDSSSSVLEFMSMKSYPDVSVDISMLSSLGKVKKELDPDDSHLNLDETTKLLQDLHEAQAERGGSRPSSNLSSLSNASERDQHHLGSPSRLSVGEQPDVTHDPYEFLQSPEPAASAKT

Row | Structure (SMILES) | IC50 [1] [nM] | IC50 [2] [nM] | DC50 [2] [nM]
1 | COc1cc(-c2cn(C)c(=O)c3cnccc23)cc(OC)c1CN1CC(C(=O)N2CCC(C3CCN(C(=O)COc4cccc5c4C(=O)N(C4CCC(=O)NC4=O)C5=O)CC3)CC2)C1 (centres unmarked) [Compound D6, 4-[2-[1-(1-[[2,6-dimethoxy-4-(2-methyl-1-oxo-1,2-dihydro-2,7-naphthyridin-4-yl)phenyl]methyl]azetidine-3-carbonyl)-[4,4-bipiperidin]-1-yl]-2-oxoethoxy]-2-(2,6-dioxopiperidin-3-yl)-2,3-dihydro-1H-isoindole-1,3-dione formic acid] | < 10 | < 10 | 
2 | COc1cc(-c2cn(C)c(=O)c3cnccc23)cc(OC)c1CN1CCCC(OCc2cn(CCCOc3ccc4c(c3)C(=O)N(C3CCC(=O)NC3=O)C4=O)nn2)C1 (centres unmarked) [Compound D151] | < 10 |  | 10 to 100
3 | COc1cc(-c2cn(C)c(=O)c3cnccc23)cc(OC)c1CN(C)CC(=O)N1CCC(C2CCN(C(=O)COc3cccc4c3C(=O)N(C3CCC(=O)NC3=O)C4=O)CC2)CC1 (centres unmarked) [Compound D2, 4-(2-[1-[2-([[2,6-dimethoxy-4-(2-methyl-1-oxo-1,2-dihydro-2,7-naphthyridin-4-yl)phenyl]methyl](methyl)amino)acetyl]-[4,4-bipiperidin]-1-yl]-2-oxoethoxy)-2-(2,6-dioxopiperidin-3-yl)-2,3-dihydro-1H-isoindole-1,3-dione] | < 10 |  | 10 to 100
4 | COc1cc(-c2cn(C)c(=O)c3cnccc23)cc(OC)c1CN1CCC2(CC1)CN(C(=O)CCOCCOc1ccc3c(c1)C(=O)N(C1CCC(=O)NC1=O)C3=O)C2 (centres unmarked) [Compound D119] | < 10 |  | 10 to 100
5 | COc1cc(-c2cn(C)c(=O)c3cnccc23)cc(OC)c1CN(C)C12CC(NC(=O)CCOCCOCCNc3cccc4c3C(=O)N(C3CCC(=O)NC3=O)C4=O)(C1)C2 (centres unmarked) [Compound D59, N-[3-([[2,6-dimethoxy-4-(2-methyl-1-oxo-2,7-naphthyridin-4-yl)phenyl]methyl](methyl)amino)bicyclo[1.1.1]pentan-1-yl]-3-[2-(2-[[2-(2,6-dioxopiperidin-3-yl)-1,3-dioxoisoindol-4-yl]amino]ethoxy)ethoxy]propanamide formic acid] | < 10 | < 10 | 
6 | COc1cc(-c2cn(C)c(=O)c3cnccc23)cc(OC)c1CN(C)C1CC2CC1CN2C(=O)CCOCCOc1ccc2c(c1)C(=O)N(C1CCC(=O)NC1=O)C2=O (centres unmarked) [Compound D171] | 10 to 100 | < 10 | 
7 | COc1cc(-c2cn(C)c(=O)c3cnccc23)cc(OC)c1CN1CCC2(CC1)CC(NC(=O)CCOCCOc1ccc3c(c1)C(=O)N(C1CCC(=O)NC1=O)C3=O)C2 (centres unmarked) [Compound D116] | < 10 |  | 10 to 100
8 | COc1cc(-c2cn(C)c(=O)c3cnccc23)cc(OC)c1CN1CC2(C1)CN(C(=O)COc1cccc3c1C(=O)N(C1CCC(=O)NC1=O)C3=O)C2 (centres unmarked) [Compound D36, 4-(2-(6-(2,6-dimethoxy-4-(2-methyl-1-oxo-1,2-dihydro-2,7-naphthyridin-4-yl)benzyl)-2,6-diazaspiro[3.3]heptan-2-yl)-2-oxoethoxy)-2-(2,6-dioxopiperidin-3-yl)isoindoline-1,3-dione] | < 10 |  | 100 to 1000
9 | COc1cc(-c2cn(C)c(=O)c3cnccc23)cc(OC)c1CNCCCN1CC(Oc2ccc3c(c2)C(=O)N(C2CCC(=O)NC2=O)C3=O)C1 (centres unmarked) [Compound D31, 5-((1-(3-((2,6-dimethoxy-4-(2-methyl-1-oxo-1,2-dihydro-2,7-naphthyridin-4-yl)benzyl)amino)propyl)azetidin-3-yl)oxy)-2-(2,6-dioxopiperidin-3-yl)isoindoline-1,3-dione formic acid] | < 10 |  | 10 to 100
10 | COc1cc(-c2cn(C)c(=O)c3cnccc23)cc(OC)c1CN(C)C1CC2CN(C(=O)CCOCCOc3ccc4c(c3)C(=O)N(C3CCC(=O)NC3=O)C4=O)CC2C1 (centres unmarked) [Compound D169] | < 10 |  | 10 to 100
11 | COc1cc(-c2cn(C)c(=O)c3cc(O)ccc23)cc(OC)c1CN1CCC2(CC1)CN(C(=O)CCCOc1cccc3c1C(=O)N(C1CCC(=O)NC1=O)C3=O)CCO2 (centres unmarked) [Compound D54, 2-(2,6-dioxopiperidin-3-yl)-4-[4-(9-[[4-(7-hydroxy-2-methyl-1-oxoisoquinolin-4-yl)-2,6-dimethoxyphenyl]methyl]-1-oxa-4,9-diazaspiro[5.5]undecan-4-yl)-4-oxobutoxy]isoindole-1,3-dione formic acid] | 10 to 100 | 10 to 100 | 
12 | COc1cc(-c2cn(C)c(=O)c3cnccc23)cc(OC)c1CN1CCC(OC2CCN(C(=O)CCOCCOc3cccc4c3C(=O)N(C3CCC(=O)NC3=O)C4=O)C2)CC1 (centres unmarked) [Compound D114] | < 10 |  | 10 to 100
13 | COc1cc(-c2cn(C)c(=O)c3cnccc23)cc(OC)c1CN1CC[C@H]1CN(C)Cc1cccc2c1C(=O)N(C1CCC(=O)NC1=O)C2=O (stereo partly drawn) [Compound D27, 4-(((((S)-1-(2,6-dimethoxy-4-(2-methyl-1-oxo-1,2-dihydro-2,7-naphthyridin-4-yl)benzyl)azetidin-2-yl)methyl)(methyl)amino)methyl)-2-(2,6-dioxopiperidin-3-yl)isoindoline-1,3-dione] | < 10 |  | 10 to 100
14 | COc1cc(-c2cn(C)c(=O)c3cnccc23)cc(OC)c1CN(C)CC12CC(NC(=O)CCOCCOCCNc3cccc4c3C(=O)N(C3CCC(=O)NC3=O)C4=O)(C1)C2 (centres unmarked) [Compound D68, N-[3-[([[2,6-dimethoxy-4-(2-methyl-1-oxo-2,7-naphthyridin-4-yl)phenyl]methyl](methyl)amino)methyl]bicyclo[1.1.1]pentan-1-yl]-3-[2-(2-[[2-(2,6-dioxopiperidin-3-yl)-1,3-dioxoisoindol-4-yl]amino]ethoxy)ethoxy]propanamide formic acid] | < 10 |  | 100 to 1000
15 | COc1cc(-c2cn(C)c(=O)c3cnccc23)cc(OC)c1CN1CCC2(CCN(C(=O)CCOCCOc3cccc4c3C(=O)N(C3CCC(=O)NC3=O)C4=O)C2)C1 (centres unmarked) [Compound D108] | < 10 | < 10 | 
16 | COc1cc(-c2cn(C)c(=O)c3cnccc23)cc(OC)c1CN1CC2(CCN(C(=O)CCOCCOc3cccc4c3C(=O)N(C3CCC(=O)NC3=O)C4=O)CC2)C1 (centres unmarked) [Compound D85] | 10 to 100 | 100 to 1000 | 
17 | COc1cc(-c2cn(C)c(=O)c3cnccc23)cc(OC)c1CN(C)C12CC(C(=O)NCCOCCOCCNc3cccc4c3C(=O)N(C3CCC(=O)NC3=O)C4=O)(C1)C2 (centres unmarked) [Compound D58, 3-([[2,6-dimethoxy-4-(2-methyl-1-oxo-2,7-naphthyridin-4-yl)phenyl]methyl] (methyl)amino)-N-[2-[2-(2-[[2-(2,6-dioxopiperidin-3-yl)-1,3-dioxoisoindol-4-yl]amino]ethoxy)ethoxy]ethyl]bicyclo[1.1.1]pentane-1-carboxamide] | < 10 | < 10 | 
18 | COc1cc(-c2cn(C)c(=O)c3cnccc23)cc(OC)c1CN1CC(CC(=O)NCCCCCCCCNc2cccc3c2C(=O)N(C2CCC(=O)NC2=O)C3=O)C1 (centres unmarked) [Compound D9, 2-(1-[[2,6-dimethoxy-4-(2-methyl-1-oxo-1,2-dihydro-2,7-naphthyridin-4-yl)phenyl]methyl]azetidin-3-yl)-N-(8-[[2-(2,6-dioxopiperidin-3-yl)-1,3-dioxo-2,3-dihydro-1H-isoindol-4-yl]amino]octyl)acetamide formic acid] | < 10 | < 10 | 
19 | COc1cc(-c2cn(C)c(=O)c3cnccc23)cc(OC)c1CN1CC2CN(C(=O)CCOCCOc3ccc4c(c3)C(=O)N(C3CCC(=O)NC3=O)C4=O)CCC21 (centres unmarked) [Compound D100] | < 10 | < 10 | 
20 | COc1cc(-c2cn(C)c(=O)c3cnccc23)cc(OC)c1CN(C)CC1CC2(C1)CN(C(=O)CCOCCOc1cccc3c1C(=O)N(C1CCC(=O)NC1=O)C3=O)C2 (centres unmarked) [Compound D164] | < 10 |  | 10 to 100
21 | COc1cc(-c2cn(C)c(=O)c3cnccc23)cc(OC)c1CN(C)C(=O)CCCCN1CCOC2(CCN(c3ccc4c(c3)C(=O)N(C3CCC(=O)NC3=O)C4=O)CC2)C1 (centres unmarked) [Compound D72, N-[[2,6-dimethoxy-4-(2-methyl-1-oxo-2,7-naphthyridin-4-yl)phenyl]methyl]-5-[9-[2-(2,6-dioxopiperidin-3-yl)-1,3-dioxoisoindol-5-yl]-1-oxa-4,9-diazaspiro[5.5]undecan-4-yl]-N-methylpentanamide formic acid] | < 10 | < 10 | 
22 | COc1cc(-c2cn(C)c(=O)c3cnccc23)cc(OC)c1CN1CC[C@H]1C(=O)NCCN(C)CCNC(=O)COc1ccc2c(c1)C(=O)N(C1CCC(=O)NC1=O)C2=O (stereo partly drawn) [Compound D26, N-[2-[(2-[[(2S)-1-[[2,6-dimethoxy-4-(2-methyl-1-oxo-1,2-dihydro-2,7-naphthyridin-4-yl)phenyl]methyl]azetidin-2-yl]formamido]ethyl)(methyl)amino]ethyl]-2-[[2-(2,6-dioxopiperidin-3-yl)-1,3-dioxo-2,3-dihydro-1H-isoindol-5-yl]oxy]acetamide] | 10 to 100 | > 1000 | 
